Data published in patent US11013728B2, “Cyclin-dependent kinase 8 and/or 19 inhibitor” (Kyoto Pharmaceutical Industries, Ltd., priority 2017, dated 2021).

Target: T1, CDK19 (Homo sapiens, UniProt Q9BWU1)
T1 construct: purchased Carna Bioscience
Experiment: CDK19 inhibitory activity, ELISA kinase assay
Type: biochemical
Conditions: at 1 μM of test compound; read-out: CDK19 inhibitory rate
Description: The test compound (compound (I)) dissolved in DMSO was diluted with an assay buffer (QSS Assist STK ELISA Kit (CDK8/CycC), Carna Bioscience) to give a primary dilution solution with a DMSO concentration of 40%. The above-mentioned primary dilution solution (10 μL) was dispensed in a streptavidin-coated 96 well plate, and an assay buffer mixture (10 μL) containing 500 nM substrate (Carna Bioscience), 10 mM MgCl2 (Carna Bioscience) and 100 μM ATP (Carna Bioscience) was added. After the above-mentioned addition, 10 μL of a kinase solution was added (1 ng/μL CDK8/CycC (Carna Bioscience) diluted with assay buffer is used for measurement of CDK8 inhibitory activity and for 5 ng/μL […] (Carna Bioscience) diluted with assay buffer is used for measurement of CDK19 inhibitory activity). After the above-mentioned addition, the mixture was stood in an incubator at 24-26° C. for 30 min. […] The reaction was quenched by adding a color developing reaction termination drug (Nacalai Tesque) (100 μL) to each well, and the absorbance (450 nm) was measured by a plate reader.
Using the absorbance of the test compound non-addition well as a control and the absorbance of the enzyme non-addition well as a blank, the CDK8 and CDK19 inhibitory rate was determined at 1 μM of each test compound.

T1 sequence (Q9BWU1 whole entry): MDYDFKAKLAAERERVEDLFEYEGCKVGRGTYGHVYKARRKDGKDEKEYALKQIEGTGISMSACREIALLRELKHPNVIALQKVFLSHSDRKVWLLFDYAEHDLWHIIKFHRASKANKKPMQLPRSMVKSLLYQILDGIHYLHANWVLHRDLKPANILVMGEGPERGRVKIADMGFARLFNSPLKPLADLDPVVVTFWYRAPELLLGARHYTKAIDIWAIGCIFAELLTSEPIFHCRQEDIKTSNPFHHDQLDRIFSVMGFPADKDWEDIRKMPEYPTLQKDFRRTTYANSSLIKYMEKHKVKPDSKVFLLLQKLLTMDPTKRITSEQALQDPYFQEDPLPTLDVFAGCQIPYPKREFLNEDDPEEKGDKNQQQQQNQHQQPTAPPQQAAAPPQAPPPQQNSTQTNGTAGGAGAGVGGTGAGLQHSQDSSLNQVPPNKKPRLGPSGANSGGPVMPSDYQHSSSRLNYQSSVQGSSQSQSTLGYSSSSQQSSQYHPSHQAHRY
T1 sequence (P24863 whole entry partner): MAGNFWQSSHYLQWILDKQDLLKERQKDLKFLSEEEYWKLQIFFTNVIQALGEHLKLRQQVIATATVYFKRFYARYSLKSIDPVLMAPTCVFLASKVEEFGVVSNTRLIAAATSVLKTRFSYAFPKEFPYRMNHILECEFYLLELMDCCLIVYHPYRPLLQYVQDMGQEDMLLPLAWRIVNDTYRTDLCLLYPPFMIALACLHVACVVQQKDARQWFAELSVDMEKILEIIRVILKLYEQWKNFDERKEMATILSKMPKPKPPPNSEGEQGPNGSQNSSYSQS

Q: For `CC(=O)c1ccc(C(N)=O)cc1Oc1ccc(OCCOC2CCOCC2)cc1` [Compound 32, 4-acetyl-3-{4-[2-(tetrahydropyran-4-yloxy)ethoxy]phenoxy}benzamide], which inhibition at 1 µM is on record?
A: ≥ 90%

Q: For `C[C@@H](O)c1ccc(C(N)=O)cc1Oc1ccc(OCCOC2CCOCC2)cc1` [Compound 43], which inhibition at 1 µM is on record?
A: ≥ 90%

Tested on: human acute myeloid leukemia MV4; 11
Experiment: MV4;11 cell proliferation inhibitory activity (CellTiter 96 Aqueous One)
Type: cell-based
Conditions: 72 h, MV4;11 cells, cultured 3 days, read-out: cell proliferation inhibitory rate
Description: The human acute myeloid leukemia MV4; 11 cell proliferation inhibitory activity of compound (I) of the present invention was evaluated by the following method.
A cell suspension (100 μL, 10,000 cells/well) of human acute myeloid leukemia MV4; 11 (purchased from American Type Culture Collection) was seeded on a 96 well plate and cultured in a 5% carbon dioxide gas incubator at 37° C. for one day. After the above-mentioned culture, each test compound (compound (I)) was added to a concentration of 1 μM and the mixture was further cultured for 3 days. After the above-mentioned culture, 40 μL of CellTiter 96 (registered trade mark) Aqueous One Solution Cell Proliferation Assay (Promega KK) was added to the 96 well-plate, the mixture was reacted for 3 hr, and the absorbance (490 nm) was measured by a plate reader.
Using the absorbance of the test compound non-addition well as a control and the absorbance of the cell non-seeded well as a blank, the cell proliferation inhibitory rate was determined at 1 μM of each test compound.

Q: For `NC(=O)c1ccc([N+](=O)[O-])c(Nc2ccc(N3CC(OCCO)C3)cc2)c1` [Compound 5, 3-{4-[3-(2-hydroxyethoxy)azetidin-1-yl]phenylamino}-4-nitrobenzamide], which inhibition at 1 µM is on record?
A: ≥ 50%

Q: With `CC(=O)c1ccc(C(N)=O)cc1Oc1ccc(N2CC(OCCO)C2)cc1` [Compound 28, 4-acetyl-3-{4-[3-(2-hydroxyethoxy)azetidin-1-yl]phenoxy}benzamide] as the compound, how does the inhibition at 1 µM read?
A: ≥ 50%

Q: Which inhibition at 1 µM does the source give for `CC(=O)c1ccc(C(N)=O)cc1Oc1ccc(OCCOC2CCOCC2)cc1` [Compound 32, 4-acetyl-3-{4-[2-(tetrahydropyran-4-yloxy)ethoxy]phenoxy}benzamide] here?
A: ≥ 50%

Q: For `CC(=O)c1ccc(C(N)=O)cc1Oc1ccc(OCCOCCOC(C)C)cc1` [Compound 33, 4-acetyl-3-{4-[2-(2-isopropoxyethoxy)ethoxy]phenoxy}benzamide], which inhibition at 1 µM is on record?
A: ≥ 50%

Q: Which inhibition at 1 µM does the source give for `CNC(=O)c1ccc([N+](=O)[O-])c(Nc2ccc(N3CC(OCCO)C3)cc2)c1` [Compound 48, 3-{4-[3-(2-hydroxyethoxy)azetidin-1-yl]phenylamino}-N-methyl-4-nitrobenzamide] here?
A: ≥ 50%

Q: For `NC(=O)c1ccc([N+](=O)[O-])c(Nc2ccc(OCCOC3CCOCC3)cc2)c1` [Compound 50, 4-nitro-3-{4-[2-(tetrahydropyran-4-yloxy)ethoxy]phenylamino}benzamide], which inhibition at 1 µM is on record?
A: ≥ 50%

Q: With `NC(=O)c1ccc(C(F)(F)F)c(Oc2ccc(OCCOC3CCOCC3)cc2)c1` [Compound 64, 3-{4-[2-(tetrahydropyran-4-yloxy)ethoxy]phenoxy}-4-trifluoromethylbenzamide] as the compound, how does the inhibition at 1 µM read?
A: ≥ 50%

Q: With `CC(=O)c1ccc(C(N)=O)cc1Oc1ccc(OCCOC2CCOC2)cc1` (stereo not shown) [Compound 67, 4-acetyl-3-{4-[2-(tetrahydrofuran-3-yloxy)ethoxy]phenoxy}benzamide] as the compound, how does the inhibition at 1 µM read?
A: ≥ 50%

Q: With `C=C(F)c1ccc(C(N)=O)cc1Oc1ccc(OCCOC2CCOCC2)cc1` [Compound 84, 4-(1-fluorovinyl)-3-{4-[2-(tetrahydropyran-4-yloxy)ethoxy]phenoxy}benzamide] as the compound, how does the inhibition at 1 µM read?
A: ≥ 50%

Tested on: 39 kinds of serine/threonine kinase
Experiment: Off-chip Mobility Shift Assay (MSA), serine/threonine kinase panel
Type: biochemical
Conditions: test compound 1 μM; 39 kinases listed in b243 (AKT1 ... TSSK1, incl. CDK2, 3, 4, 5, 6, 7, 9)
Description: The action of compound (I) of the present invention on serine/threonine kinase activity was examined by Off-chip Mobility Shift Assay (MSA). The method is shown below.
The action of a test compound (1 μM) on 39 kinds of serine/threonine kinase activity was examined. A solution of 4-fold concentration of compound 32 (5 μL) prepared by using an assay buffer (20 mM HEPES, 0.01% Triton X-100, 2 mM DTT, pH 7.5), a substrate/ATP/metal solution (5 μL) and a kinase […] solution (10 μL) were mixed in a well of a polypropylene 384 well plate and the mixture was reacted at room temperature for 1 or 5 hr. The reaction was discontinued by adding 70 μL of Termination Buffer (Carna Biosciences). The substrate peptide and phosphorylated peptide in the reaction solution were separated and quantified by LabChip System (Perkin Elmer).
The kinase reaction was evaluated based on a resultant product ratio (P/(P+S)) calculated from substrate peptide peak height (S) and phosphorylated peptide peak height (P).

Q: Which “action on serine/threonine kinase activity” value does the source give for `CC(=O)c1ccc(C(N)=O)cc1Oc1ccc(OCCOC2CCOCC2)cc1` [Compound 32, 4-acetyl-3-{4-[2-(tetrahydropyran-4-yloxy)ethoxy]phenoxy}benzamide] here?
A: did not affect

Tested on: various cancer cells
Experiment: not given
Conditions: reported in non-patent document 3; remarkable effects on leukemia cells; cited from earlier work

Q: With Cortistatin A as the compound, how does the “proliferation of various cancer cells” value read?
A: suppresses proliferation
